Earlier results as cited in patent US20190231802A1, “CHEMOTHERAPEUTIC-RELEASING IMPLANTABLE STICK, METHODS OF MANUFACTURE AND PRECURSOR MATERIALS” (The Johns Hopkins University, priority 2016, published 2019).

Tested on: selected cancer cell lines
Conditions: compared to paclitaxel, topotecan, CPT-11, docetaxel, carboplatin and temozolomide; previous study [8]

COc1cccc2c1C(=O)c1c(O)c3c(c(O)c1C2=O)C[C@@](O)(C(=O)CO)C[C@@H]3O[C@H]1C[C@H](N)[C@H](O)[C@H](C)O1 [Doxorubicin]
IC50: relatively low IC50
